Row | SMILES | melting point [°C]
1 | CON1C=C2N=NC3=C(N2C1)N(c1cc(Cl)ccc1Cl)CC(C)=C3 | 159 to 162
2 | Nc1ccccc1CCN1CCN(c2nsc3ccccc23)CC1 | 149
3 | COc1ccc2c(c1)c(-c1cc3nccnc3[nH]1)cn2C | 270 to 272
4 | OCCC(O)(c1ccc(Br)cc1)c1cccnc1 (centres undefined) | 130 to 132
5 | COc1ccccc1N1CCC(CNC(=O)Nc2c(C(C)C)cc(N)cc2C(C)C)(c2cccc(OCCCO)c2)CC1 | 203 to 205
6 | CC(C)c1c(C=O)c(-c2ccccc2)c2c3ccccc3ccn12 | 134 to 136
7 | COC(=O)c1ccc(Cn2c(C(=O)NC(N)=S)cc3cc(C)cc(C)c32)cc1 | 222 to 224
8 | O=C(O)c1cnn(CC(F)(F)F)c1 | 160 to 162
9 | CCOC(=O)CCc1nc(-c2cccc(OC)c2)nc2ccccc12 | 70
10 | COc1ccc(COc2ccccc2Br)cc1 | 87 to 90
11 | CN(CCOc1ccc(N)cc1)CCc1ccc(N)cc1 | 73 to 74
12 | COC(=O)[C@@H](Cc1ccccc1)Oc1c(Br)cc(-c2c3ccccc3c(Br)c3sc4ccccc4c23)cc1Br | 138 to 140
13 | CCCCCCCCCCCCCCCCOC(=O)c1ccc(Cl)c(Nc2cc(=O)n(-c3c(Cl)cc(Cl)cc3Cl)n2C(=O)OCc2ccccc2)c1 | 128 to 131
14 | O=C(COc1ccccc1)NC1C(=O)N2C(C(=O)OCc3ccccc3)N=CSC12 (centres undefined) | 142 to 143
15 | O=C(O)Cc1ccc2c(c1)C(c1ccccc1)C(=O)O2 (centres undefined) | 136
16 | CCOC(=O)c1cc(=O)c2c(OCC(O)COc3cccc(O)c3C(=O)C=CN(C)C)cccc2o1 (centres undefined) | 159 to 165
17 | COC(Nc1ccccc1)(OC)c1ccnc(C(=O)c2ccc(Cl)cc2)c1 | 137 to 138
18 | COc1cc(C(N)=O)cc([N+](=O)[O-])c1OC | 182 to 185
19 | Cc1nc(-n2ccc(OCC3CCCO3)cc2=O)sc1C(=O)NCc1ccccc1 (centres undefined) | 181 to 183
20 | C=CCOC(=O)c1ccc(OC(=O)c2ccc(OC)c(C34CC5CC(CC(C5)C3)C4)c2)c(C(C)(C)C)c1 | 113 to 115
21 | CCCn1c(=O)c2[nH]c(-c3ccoc3)nc2n(CCC)c1=O | 244 to 245
22 | C=CCCc1cc(C2(c3ccc(OC(F)F)cc3)N=C(N)N(C)C2=O)ccc1F (centres undefined) | 55 to 58
23 | Cc1ccc(C)c(CNc2c(NC(C)(C)C)c(=O)c2=O)c1 | 246 to 247
24 | COC(=O)CCc1cnoc1-c1ccc2c(c1)OCO2 | 84 to 85
25 | Cn1c(C(=O)NN)nc2ccccc21 | 156 to 159

Row | SMILES | melting point [°C]
26 | O=C(NCc1cccc(-c2ccc(CS(=O)(=O)Cc3n[nH]c(=O)[nH]3)cc2)c1)c1nc2ccccc2c(=O)[nH]1 | 245 to 247
27 | COc1ccc(COc2cc(C)nc3c(O)cccc23)cc1OC | 129 to 131
28 | Cn1c([N+](=O)[O-])cnc1C(Cl)Cl | 52
29 | CCCOc1ccc(CC(=O)NCC(=O)O)cc1Cl | 110 to 112
30 | O=C1C(c2ccccc2)=C(c2c(Cl)cccc2Cl)C(=O)N1c1ccc(Cl)cc1 | 134
31 | N=C(NO)c1nn(-c2c(Cl)cc(C(F)(F)F)cc2Cl)c(C=O)c1SC(F)(F)F | 72 to 75
32 | CCNC(=O)CCCNC(=O)CCCNC(=O)OC(C)(C)C | 134 to 135
33 | COc1ccc2cc(CNCc3ccccc3)ccc2c1 | 45 to 53
34 | O=C(O)C1Cc2cc3c(=O)c4c(Cl)cccc4oc3c(Cl)c2O1 (centres undefined) | 291 to 294
35 | Cc1ccc(CS(=O)c2nc3cc4c(cc3[nH]2)OC(F)C(F)(F)O4)nc1 (centres undefined) | 186 to 187
36 | CNC(=O)CN1CCC2=C(C1)c1c(O)cc(C(C)C)cc1OC2(C)C | 178 to 190
37 | CCCCCCCCCCCCCCCCCc1nnc(CO)n1-c1sc(CC)cc1C(=O)c1ccc(C)cc1 | 68 to 69
38 | CCOC(=O)c1csc(N2N=C(c3ccc([N+](=O)[O-])cc3)c3cc4c(cc3CC2C)OCO4)n1 (centres undefined) | 242 to 243
39 | Cc1nn(-c2c(Cl)cc(C(F)(F)F)cc2Cl)nc1C=NC(C#N)=C(N)C#N | 238 to 239
40 | CN1CCOc2ccc(S(=O)(=O)Nc3ccc(CCl)cc3I)cc21 | 109 to 110
41 | CC=C1CCC2C3C(OC(C)=O)CC4CC(OC(C)=O)CCC4(C)C3CCC12C (centres undefined) | 92 to 93
42 | O=C(NCCc1c[nH]cn1)c1[nH]c2ccc(Cl)cc2c1S(=O)(=O)c1ccccc1 | 220 to 222
43 | CCN1CCN(C/C=C/c2ccc3c(Nc4ccc(Sc5nccn5C)c(Cl)c4)c(C#N)cnc3c2)CC1 | 232 to 236
44 | Cc1ccc(C)n1C(C)c1nccc(I)c1F (centres undefined) | 156 to 158
45 | COc1ccc(COc2ccc(C(=O)C3=C(O)C(=O)N(c4ccc(C)nn4)C3c3ccc(OC(F)(F)F)cc3)cc2)cc1 (centres undefined) | 206 to 209
46 | CN(C)C(=O)CC1(C)OCCc2c1[nH]c1c3c(ccc21)CCCC3 (centres undefined) | 176 to 178
47 | Cc1nccn1-c1nc(-c2ccc(Cl)cc2)c(CCCC2=NCCO2)o1 | 88 to 89
48 | CCC1=NC(NC(=O)Nc2cccc(C)c2)C(=O)N(CC(=O)N2CCCCCCC2)c2c(C)cccc21 (centres undefined) | 189 to 190
49 | CCN1c2ncc(CCCc3ccccc3)cc2C(=O)N(C)c2cccnc21 | 100 to 102
50 | Cc1ccccc1-c1ccc2c(c1)CC[C@H]1N(C)C(=O)CC[C@]21C | 82 to 87

Row | SMILES | melting point [°C]
51 | CCOC(=O)c1cnc(-c2ccccc2OCC)[nH]c1=O | 144 to 149
52 | COc1ccc2cccc(C(=O)C(=O)O)c2c1 | 99
53 | O=C1Cc2ccccc2Sc2cc(Cl)c(F)cc21 | 125 to 126
54 | CCOC(=O)c1nc2ccc(OC)cc2n(C)c1=O | 166
55 | Brc1n[nH]c2ccccc12 | 136
56 | Nc1nc2c(s1)CC(N1CCN(c3ccccn3)CC1)CC2 (single isomer, unassigned; (-)) | 230 to 232
57 | Cc1cn(S(C)(=O)=O)c2c1C(=O)CC(c1ccccc1Cl)C2 (centres undefined) | 167 to 168
58 | Cc1cccc(-c2[nH]c(C(C)C)nc2-c2cccc(-c3ccc([N+](=O)[O-])cc3)c2)n1 | 95 to 105
59 | CNc1ncc2c(-c3cccc(Cl)c3)cc(-c3cccc(C(=O)O)c3)c(OC)c2n1 | 270
60 | CCOC(=O)CCCNC1N=C(c2ccccc2Cl)c2c(cn(C)c2C)N(C)C1=O (centres undefined) | 105 to 107
61 | OCCCc1ccccc1OCc1ccccc1 | 45 to 48
62 | CC(=O)OC[C@H]1O[C@@H](c2ccc(C)c(Cc3ccc(-c4ccc(F)cc4)s3)c2)[C@H](OC(C)=O)[C@@H](OC(C)=O)[C@@H]1OC(C)=O | 160 to 170
63 | OC(CN1CCOCC1)c1cc(C(F)(F)F)nc2c(C(F)(F)F)cccc12 (centres undefined) | 129 to 130
64 | CCOC(=O)c1sc(=O)[nH]c1-c1cccc(C(F)(F)F)c1 | 168 to 171
65 | CN1C(=O)CN(c2cccc(C(F)(F)F)c2)NC1=O | 163 to 165
66 | O=C(C=Cc1ccc(F)cc1)c1ccc(C(F)(F)F)cc1 | 89 to 92
67 | COc1ccc2c(c1)[C@H](CO)OC2=O | 137 to 140
68 | COc1ccn2cc(-c3ccc(OC)c(OC)c3)nc2c1 | 142
69 | COc1ccccc1COc1cc2c(cc1OC)C(=O)N(Cc1ccccc1OC)CC2 | 133 to 134
70 | O=C1NC(=O)C2(C=COc3c2ccc2ncccc32)N1 (centres undefined) | 330
71 | N#Cc1cccc(-c2nc(N3CCC(CC(=O)O)CC3)cc3cccnc23)c1 | 178 to 180
72 | COCC(C#N)=Cc1ccc(OC)c(OC)c1 | 82 to 83
73 | CCN(CC)C(=O)c1nc(/C=C/c2ccc([N+](=O)[O-])o2)no1 | 118 to 119
74 | Cc1nc2c(N)nc3ccccc3c2n1OCc1ccccc1[N+](=O)[O-] | 215 to 217
75 | C/C(=C\c1ccc(OC(C)C)cc1Oc1ncc(C(F)(F)F)cc1Cl)C(=O)NS(=O)(=O)NCC1CCCO1 (centres undefined) | 125 to 126

Row | SMILES | melting point [°C]
76 | CCSN(C)C(=O)Nc1ccc(Br)cc1 | < 50
77 | COc1ccc(/C=C/[N+](=O)[O-])c(F)c1 | 80 to 82
78 | COc1ccc(-c2ccc(C(C)=O)cc2)cc1 | 156
79 | CS(=O)(=O)c1ccc(-c2oc(CO)cc(=O)c2Oc2ccc(F)cc2F)cc1 | 205
80 | CCCn1c(=O)c2nc(CC(C)c3ccccc3)[nH]c2n(CCC)c1=O (centres undefined) | 136 to 137
81 | COc1cc(C(C)=O)ccc1OCCCCBr | 52 to 54
82 | CC(=O)Nc1nc2c(Oc3cc(-c4ccc(C(F)(F)F)cc4NCc4cncn4Cc4ccccc4)ncn3)cccc2s1 | 264
83 | c1ccc2nn(-c3cscn3)cc2c1 | 146 to 147
84 | CCc1cc(OCc2ccc(-c3ccccc3C#N)cc2)c2c(n1)CCCC2 | 147 to 148
85 | COC(=O)c1cn(Cc2ccc(OCc3ccccc3)cc2)cc1-c1ccccc1 | 97 to 98
86 | O=C(O)CS(=O)(=O)c1cccc(-c2nc(=O)c3ccccc3s2)n1 | 192 to 194
87 | CC(C)(C)OC(=O)N1CCc2cc(NC(=O)NCc3ccc4c(c3)CN(C3CCC(=O)NC3=O)C4=O)ccc2C1 (centres undefined) | 230 to 232
88 | N#Cc1ncc(OC2SCC(O)C(O)C2O)cc1F (centres undefined) | 155 to 156
89 | CCOC(=O)Nc1nc(C(=NOC)C(=O)OCC)ns1 | 108 to 110
90 | C=C1SC(=O)N(c2ccc3cc(-c4ccc(O)c(C56CC7CC(CC(C7)C5)C6)c4)ccc3c2)C1=O | 299 to 302
91 | O=C1Nc2ccccc2CCC1Oc1ccc([N+](=O)[O-])c(OCc2ccccc2)c1 (centres undefined) | 188 to 189
92 | O=C(O)CCc1cn(Cc2ccc(OCc3csc(-c4cccnc4)n3)cc2)cc1-c1ccccc1 | 118 to 119
93 | Cn1ccnc1COc1ccccc1[N+](=O)[O-] | 172 to 174
94 | O=C(Nc1cccc(C(=O)O)c1)OCc1cn(-c2cc3cc(C(=O)O)c(=O)[nH]c3cc2[N+](=O)[O-])cn1 | > 300
95 | CC(=O)NC(C)=NC(=Nc1ccccc1)N1CCOCC1 | 146 to 149
96 | O=C(O)CC(C1CCCCC1)C1CCCCC1 | 118 to 120
97 | CC(=O)SCCNC(=O)[C@H](CSC(C)=O)NC(=O)C(C)C | 125 to 127
98 | Cc1c(Cl)cc(O)cc1Cl | 92 to 93
99 | CNc1nc2c(C)cccc2c2c1CCN2c1ccccc1C | 165 to 167

Reference: a melting point compilation (Tetko et al.; mined from patent text by program, amines drawn as free bases though some values may be those of a salt)
